In patent US20180344725A1, “QUINOLONE CHALCONE COMPOUNDS AND USES THEREOF” (priority 2015, published 2018):

Assays:
MDA-MB-468 = assay: Immunofluorescent staining: centrosomes and chromosome segregation; type: cell-based, human; settings: 3 μM
Method: (§1) Cells on coverslips placed on the bottom of 35 mm tissue culture plates or 6-well clustered dishes were treated for 12-24 hours with the CTR compounds to be tested. Subsequently, the cells were fixed with 100% methanol for 15 minutes and washed with 1×PBS three times. Cells were then “blocked” with 3% BSA or 1% (v/v) FBS plus 1×PBST (1×PBS buffer containing 0.1% (v/v) Triton X-100 or 0.2% Tween 20), and incubated overnight at 4° C. with primary antibodies, with gentle agitation. Unbound primary antibodies were washed off with PBST, and a secondary antibody was added for 1 hour in the dark. Secondary antibodies were conjugated to Alexa 488 or 568. DNA was counterstained with DRAQ5 or DAPI. Subsequently, coverslips were washed three times with 1×PBST for 10 minutes each, followed by mounting them onto slides with 90% glycerol in 1×PBS. Each slide was visualized with a Carl Zeiss 510 Meta laser scanning microscope or an Axioscope. Image analysis was done with an LSM image examiner equipped with the microscopes (Carl Zeiss, Toronto, ON, Canada).
The cancer-specific increase of mitotic cells in response to CTR-17 was correlated with the accumulation of cells with monopolar centrosomes and abnormal chromosome alignment/segregation (FIG. 11, Table 5). Cells were either sham-treated or treated with 3.0 μM CTR-17 for 12 hours or 24 hours, followed by analyses of cell cycle progression, centrosome abnormalities, and chromosome alignment/segregation. […] The mitotic index was determined by fluorescence microscopic analysis of at least 200 cells for each cell type, and data was expressed as percentage mean±S.E.M. of at least two independent experiments.

HeLa S3 cells = assay: Trypan blue exclusion assay; type: cell-based; settings: 1 μM; 72 hours post-treatment
Method: Cell survival/death was determined by trypan blue exclusion assays.

MCF-7 = assay: Immunofluorescent staining: centrosomes and chromosome segregation; type: cell-based, human; settings: 1 μM, 24 hours
Method: as §1
Asynchronously growing cells were treated with 1 μM CTR-20 for 24 hours, followed by examining cells arrested in mitosis. The percentage of mitotic cells was calculated based on the examination of at least 250-400 cells. […]

Structure (SMILES): COc1ccccc1C(=O)/C=C/c1cc2ccccc2[nH]c1=O [CTR-17, (E)-3-(3-(2-Methoxyphenyl)-3-oxoprop-1-enyl)quinolin-2(1H)-one]
- ACS (abnormal chromosome segregation) (MDA-MB-468; 12 h post-treatment): 44.7 ± 8.9% of total mitotic cells
- Monopolar centrosome (MDA-MB-468; 12 h post-treatment): 55.3 ± 8.9% of total mitotic cells
- ACS (abnormal chromosome segregation) (MDA-MB-468; 24 h post-treatment): 24.0 ± 5.9% of total mitotic cells
- Monopolar centrosome (MDA-MB-468; 24 h post-treatment): 76.0 ± 5.9% of total mitotic cells

Structure (SMILES): COc1ccc2[nH]c(=O)c(/C=C/C(=O)c3ccccc3OC)cc2c1 [CTR-20, (E)-6-Methoxy-3-(3-(2-methoxyphenyl)-3-oxoprop-1-enyl) quinolin-2(1H)-one]
- cell death (HeLa S3 cells): ~70%
- ACA/S (%) (abnormal chromosome alignment and segregation) (MCF-7): 29.01 ± 2.50%
- Monopolar (%) (MCF-7): 62.41 ± 2.99%
